Consider 1 molecule from patent US10814010B2, “FOXC2 inhibitor and methods of use thereof” (The Board of Regents of The University of Texas System, priority 2018, dated 2020).

Type in all cases: cell-based
For one assay, the system named is MCF-7 cells. Briefly: MTT cell viability assay, MCF-7. To be noted: MCF-7, MTT, very low FOXC2 expression. The procedure:
It was hypothesized that the specific binding of MC-1-F2 can lead to its specific cellular activity against cancer cells with high FOXC2 expression. This hypothesis was tested by evaluating MC-1-F2's cellular activity on cell lines with different FOXC2 expression levels: MCF-7, BT549, and MDA-MB-231. […] However, further studies are still underway. The specificity in cellular activity of MC-1-F2 was further evaluated in the form of a soft-agar colony forming assay to determine if MC-1-F2 was able to inhibit in vitro tumorigenicity of cancer cells in a FOXC2 expression-dependent manner. […] Further testing is underway in various breast cancer cell lines with different FOXC2 expression levels.
(§1) Cell viability was assessed by MTT (3-(4,5-Dimethylthiazol-2-yl)-2,5-Diphenyltetrazolium Bromide) assay. 1×10^4 cells were seeded on 48-well cell culture plate, and were incubated for at least 24 hours prior to drug treatment. The MTT reagent (Fisher Scientific) was added to the culture medium 3 hours prior to the end of compound incubation. The reaction took place in the 37° C. incubator with 5% CO2 for 3 hours. Cell culture medium was then removed from the wells. Cells with the insoluble purple formazan were lysed with DMSO for 10 mins at room temperature, 0.5 ml per well. The solution was aliquot to 96-well plate for absorbance reading at 570 nm using a plate reader.

Assay [1] concerns PC3 cells. Briefly: Western blot of EMT, CSC markers and AR in PC3. To be noted: PC3, 20 μM, 48 hours. The source says: Due to our interest in CRPC the cell lines DU145 and PC3 were chosen due to their chemoresistance to high concentrations of enzalutamide, androgen independence, and relatively high expression of FOXC2 (FIGS. 30A&B). First, the effect of MC-1-F2 on the inhibition of EMT markers was examined (FIGS. 26A-G). […] The variability in E-cadherin expression can be due to a different mode of action the ligand MC-1-F2 is having on prostate cancer cells, possibly a time dependent effect of the ligand.
After confirmation of the ligand's ability to block EMT, the ligand's ability to decrease cancer stem cell (CSC) characteristics was determined. CRPC is plagued by a higher ratio of CSC to normal prostate cells, leading to the acquired characteristics of higher proliferative and self-renewal capabilities (Yun et al., 2016). CSC markers, Nanog, C-myc and KLF4, were examined.
50 μg of total protein per sample was incubated with 4× loading buffer at 100° C. for 5 min. Protein samples were then loaded into a polyacrylamide gel and subjected to SDS-PAGE. Resolved proteins were then transferred by a wet transfer method to a PVDF membrane at 100 V for 1 hour using a BioRad Mini Trans-Blot Electrophoresis Transfer Cell. Upon the completion of wet transfer, the membrane was then blocked with 5% (w/v) fat-free milk in 1× Tris-buffered saline/0.1% (v/v) Tween-20 (TBS-T) for at least 1 hour. Then incubated with the respective primary antibodies diluted in 5% BSA in 1×TBST at 4° C. overnight. The following day exposed to 1:1000 dilution of anti-mouse […] secondary antibodies in 5% (w/v) fat-free milk in 1×TBS-T for 1 hour at room temperature. The probed proteins were then detected for chemiluminescent signal using SuperSignal Chemiluminescent Substrate (PIERCE). Pierce antibodies: B-actin, and all other antibodies used are from cell signaling.

The test system of the next assay is DU145 cells. Nature of the assay: Transwell invasion assay, DU145. To be noted: DU145, 24 hours, vs DMSO. The protocol: Following determination of both inhibition of EMT and CSC properties, the inhibition of the migratory and invasive capabilities of both cell lines following MC-1-F2 treatment was examined through the use of a transwell invasion assay.
Matrigel invasion chambers (Corning) were allowed to come to room temperature and allowed to rehydrate for 2 hours in a cell incubator. Cells were treated 24 hours prior to assay and starved in 2% FBS in DMEM for 2 hours prior to assay. A cell suspension containing 5×10^4 cells/mL was prepared. Chemoattractant (DMEM+10% FBS) was added to the bottom of the wells. Using forceps, the inserts were transferred inside the wells and 0.5 mL of cell suspension was immediately added. The chambers were incubated for 22 hours in a humidified tissue culture incubator. After the 22 hours, the non-invading cells were removed by scrubbing the surface of the membrane. The cells were fixated with 4% formaldehyde solution for 2 minutes at room temperature. Followed by permeabilization of the membrane with 100% MeOH for 20 minutes at room temperature. The cells were stained with 0.5% crystal violet solution and several images of the wells were then taken and total number of cells counted for analysis.

Assay [2] has as its system PC3 cells. Briefly: MTT cell viability assay, PC3. To be noted: Homo sapiens, PC-3, 24 hour treatment.
Source text: Inhibition of EMT in CRPC could lead to a new form of therapeutics to aid once androgen-independence is achieved. However, in order for MC-1-F2 to be considered an effective chemotherapeutic agent, its EC50 in prostate cancer needed to be determined as well as how it compares to other chemotherapeutic agents on the market and whether it is able to inhibit chemoresistance or lower the sensitivity of CRPC to commercially available drugs. In order to determine the EC50 of MC-1-F2, an MTT assay on cell viability was performed in both DU145 and PC3. […] These doses are higher than those encountered with breast cancer cell lines. This is most likely due to the lower FOXC2 expression levels founds in prostate cell lines when compared to the breast cell lines.
as §1, with “assay 5,000” for “assay. 1×10^4”, “a 96-well” for “48-well”, “plate” for “plate,”, “200 μL” for “0.5 ml”, “Absorbance” for “The solution”, “read” for “aliquot to 96-well plate for absorbance reading”

Regarding `N=C(N)NCCCCNc1nc(Nc2ccc(Oc3ccccc3)cc2)nc(N2CCN(c3nc(N)nc(Nc4ccc(N5CCOCC5)cc4)n3)CC2)n1` [MC-1-F2], the “inhibition of cell viability” value with MCF-7 cells was “little inhibition of cell viability”. In the assay on PC3 cells [1], the AR expression entry is “no effect on AR expression”; the “CSC markers Nanog, C-myc and KLF4” value was “significant decreases”; the E-cadherin expression levels result was “no recovery in the expression levels of E-cadherin”; the “EMT markers ZEB1, Vimentin, N-cadherin and Slug” value is “inhibit various EMT markers”. In addition, the “epithelial marker ZO-1 expression” value in the assay with PC3 cells [1] is given as “recovery of the epithelial marker ZO-1”. In the assay with DU145 cells, the “invasiveness (transwell invasion)” value is listed as “remarkable inhibition in invasiveness”. The EC50 in the assay on PC3 cells [2] turned out to be 46.6 µM.
